Assay results reported in PubChem BioAssay (NCI).
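Where inhibition never reached the appropriate level, the endpoint shown equals the highest concentration tested. Otherwise, values were interpolated linearly from a five-concentration, 48-hour dose response in 96-well plates. GI50 marks 50% less growth. Definition used: TGI = concentration required for complete inhibition of growth.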

What was measured:
Assay in all cases: NCI-60 cell line screen, 48 h
786-0 renal = tested on: 786-0 renal
SK-OV-3 ovarian = tested on: SK-OV-3 ovarian
T-47D breast = tested on: T-47D breast
CAKI-1 renal = tested on: CAKI-1 renal
DU-145 prostate = tested on: DU-145 prostate
SN12C renal = tested on: SN12C renal
ACHN renal = tested on: ACHN renal
BT-549 breast = tested on: BT-549 breast
KM20L2 colon = tested on: KM20L2 colon
M19-MEL melanoma = tested on: M19-MEL melanoma
DMS 273 small cell lung = tested on: DMS 273 small cell lung
DLD-1 colon = tested on: DLD-1 colon

## O=C1/C=C/[C@@H](O)[C@@H]2C[C@@H](O)C[C@H]2/C=C/CCC[C@H](CO)O1
786-0 renal
  GI50: 1.78 µM
  TGI: 4.87 µM
SK-OV-3 ovarian
  GI50: 4.62 µM
  TGI: > 100 µM
T-47D breast
  GI50: 2.49 µM
  TGI: 7.12 µM
CAKI-1 renal
  GI50: 3.74 µM
  TGI: > 100 µM
DU-145 prostate
  GI50: 7.75 µM
  TGI: > 100 µM
SN12C renal
  GI50: 4.24 µM
  TGI: > 100 µM
ACHN renal
  GI50: 3.97 µM
  TGI: > 100 µM
BT-549 breast
  GI50: 3.98 µM
  TGI: > 100 µM

## CCC(c1ccc(OC)cc1)C(CC)c1ccc(O)c(CN2CCCC2)c1 (configuration not stated)
786-0 renal
  GI50: 2.06 µM
  TGI: 5.12 µM
SK-OV-3 ovarian
  GI50: 3.68 µM
  TGI: 12.9 µM
T-47D breast
  GI50: 2.1 µM
  TGI: 6.4 µM
CAKI-1 renal
  GI50: 6.1 µM
  TGI: 20 µM
DU-145 prostate
  GI50: 5.8 µM
  TGI: 19.1 µM
SN12C renal
  GI50: 5.61 µM
  TGI: 20.2 µM
ACHN renal
  GI50: 4.57 µM
  TGI: 18.5 µM
BT-549 breast
  GI50: 3.27 µM
  TGI: 11.5 µM

## O=C1C(Cl)=C(Nc2cccc(O)c2)C(=O)N1c1cccc(Cl)c1
786-0 renal
  GI50: 57.8 µM
  TGI: > 100 µM
SK-OV-3 ovarian
  GI50: 56.5 µM
  TGI: > 100 µM
T-47D breast
  GI50: 67.2 µM
  TGI: > 100 µM
CAKI-1 renal
  GI50: 49.9 µM
  TGI: > 100 µM
DU-145 prostate
  GI50: 69.5 µM
  TGI: > 100 µM
SN12C renal
  GI50: 21.9 µM
  TGI: 59.8 µM
ACHN renal
  GI50: 85.4 µM
  TGI: > 100 µM
BT-549 breast
  GI50: 27.3 µM
  TGI: > 100 µM

## CCN(CC)CCOC(=O)/C(=C/c1ccc(OC)cc1)c1cc(OC)c(OC)c(OC)c1
786-0 renal
  TGI: 98.8 µM
CAKI-1 renal
  TGI: 38 µM
KM20L2 colon
  TGI: 24.6 µM
SN12C renal
  TGI: 57.5 µM
M19-MEL melanoma
  TGI: > 100 µM
ACHN renal
  TGI: > 100 µM
DMS 273 small cell lung
  TGI: 23.4 µM
DLD-1 colon
  TGI: > 100 µM

## c1ccc2c(c1)nnn2CNc1ccc(N2CCOCC2)cc1
786-0 renal
  TGI: > 100 µM
SK-OV-3 ovarian
  TGI: > 100 µM
KM20L2 colon
  TGI: > 100 µM
SN12C renal
  TGI: > 100 µM
M19-MEL melanoma
  TGI: > 100 µM
ACHN renal
  TGI: > 100 µM
DMS 273 small cell lung
  TGI: > 100 µM
DLD-1 colon
  TGI: > 100 µM

## CCn1cc(C(=O)N/N=C/c2cccc(F)c2)c(=O)c2cc(F)c(N3CCNC(C)C3)c(F)c21 (configuration not stated)
786-0 renal
  GI50: 1.63 µM
  TGI: 3.16 µM
SK-OV-3 ovarian
  GI50: 1.78 µM
  TGI: 3.28 µM
T-47D breast
  GI50: 1.61 µM
  TGI: 3.25 µM
CAKI-1 renal
  GI50: 1.73 µM
  TGI: 3.15 µM
DU-145 prostate
  GI50: 1.67 µM
  TGI: 3.05 µM
SN12C renal
  GI50: 1.62 µM
  TGI: 3.11 µM
ACHN renal
  GI50: 1.63 µM
  TGI: 2.99 µM
BT-549 breast
  GI50: 1.62 µM
  TGI: 3.05 µM

## CCCCCCCC(=O)OCC1OC(n2cc(F)c(=O)[nH]c2=O)C(NC(=O)OCc2ccccc2)C(OC(=O)CCCCCCC)C1O (configuration not stated)
786-0 renal
  TGI: 65.1 µM
SK-OV-3 ovarian
  TGI: > 100 µM
CAKI-1 renal
  TGI: > 100 µM
KM20L2 colon
  TGI: > 100 µM
SN12C renal
  TGI: 27.4 µM
M19-MEL melanoma
  TGI: 54.6 µM
ACHN renal
  TGI: > 100 µM
DMS 273 small cell lung
  TGI: 54.7 µM

## C=C1SC(=Nc2ccccc2Cl)N(C(=O)c2sc3ccccc3c2Cl)C1(C)C
786-0 renal
  GI50: 25.4 µM
  TGI: > 81.9 µM
SK-OV-3 ovarian
  GI50: 7.94 µM
  TGI: 80.2 µM
T-47D breast
  GI50: 3.09 µM
  TGI: 26.8 µM
CAKI-1 renal
  GI50: 2.73 µM
  TGI: 19.4 µM
DU-145 prostate
  GI50: 11.3 µM
  TGI: > 100 µM
SN12C renal
  GI50: 12.6 µM
  TGI: > 100 µM
ACHN renal
  GI50: 3.24 µM
  TGI: > 46 µM
BT-549 breast
  GI50: 10 µM
  TGI: 49.2 µM

## C#Cc1cccc(Nc2ncnc3ccc(-c4cnc(Cl)c(NS(C)(=O)=O)c4)cc23)c1
786-0 renal
  GI50: 0.343 µM
  TGI: 4.55 µM
SK-OV-3 ovarian
  GI50: 0.206 µM
  TGI: 1.38 µM
T-47D breast
  GI50: 0.046 µM
  TGI: 1.2 µM
CAKI-1 renal
  GI50: 0.164 µM
  TGI: 1.82 µM
DU-145 prostate
  GI50: 0.434 µM
  TGI: 6.99 µM
SN12C renal
  GI50: 0.292 µM
  TGI: > 54 µM
ACHN renal
  GI50: 0.442 µM
  TGI: > 100 µM
BT-549 breast
  GI50: 0.183 µM
  TGI: 1.41 µM

## N=C1C(c2nc3ccccc3s2)=C(O)CN1c1ccc(Cl)cc1Cl
786-0 renal
  GI50: 16.9 µM
  TGI: 48.2 µM
SK-OV-3 ovarian
  GI50: 32.2 µM
  TGI: > 100 µM
T-47D breast
  GI50: 44.9 µM
  TGI: > 100 µM
CAKI-1 renal
  GI50: 3.27 µM
  TGI: 20.3 µM
DU-145 prostate
  GI50: 18.9 µM
  TGI: 63.7 µM
SN12C renal
  GI50: 13.5 µM
  TGI: 32.4 µM
ACHN renal
  GI50: 13 µM
  TGI: 28.8 µM
BT-549 breast
  GI50: 17.8 µM
  TGI: 49.6 µM

## NCC1OC(n2cnc3c(=O)[nH]c(N)nc32)C(O)C1O (configuration not stated)
786-0 renal
  TGI: > 100 µM
SK-OV-3 ovarian
  TGI: > 100 µM
T-47D breast
  TGI: > 100 µM
CAKI-1 renal
  TGI: > 100 µM
DU-145 prostate
  TGI: > 100 µM
SN12C renal
  TGI: > 100 µM
ACHN renal
  TGI: > 100 µM
BT-549 breast
  TGI: > 100 µM

## S=P(c1ccccc1)(c1ccccc1)C1(C2(P(=S)(c3ccccc3)c3ccccc3)CC2)CC1
786-0 renal
  TGI: > 100 µM
KM20L2 colon
  TGI: > 100 µM
SN12C renal
  TGI: > 100 µM
M19-MEL melanoma
  TGI: > 100 µM
ACHN renal
  TGI: > 100 µM
DMS 273 small cell lung
  TGI: > 100 µM
DLD-1 colon
  TGI: > 100 µM

## O=C(COc1ccc(Cl)cc1)N1N=C(c2ccc([N+](=O)[O-])o2)CC1(O)c1ccccc1 (configuration not stated)
786-0 renal
  TGI: 20.7 µM
SK-OV-3 ovarian
  TGI: 47.3 µM
CAKI-1 renal
  TGI: > 100 µM
KM20L2 colon
  TGI: 30.4 µM
SN12C renal
  TGI: 15.8 µM
M19-MEL melanoma
  TGI: 10.1 µM
DMS 273 small cell lung
  TGI: 18.6 µM
DLD-1 colon
  TGI: > 100 µM

## O=S(=O)(NCCCNc1cc(-c2cn(-c3ccccc3)nc2-c2cccc(O)c2)ccn1)c1cccc2ccccc12
786-0 renal
  GI50: 1.59 µM
  TGI: 3.57 µM
SK-OV-3 ovarian
  GI50: 4.83 µM
  TGI: > 100 µM
T-47D breast
  GI50: 2.14 µM
  TGI: 8.53 µM
CAKI-1 renal
  GI50: 3.37 µM
  TGI: > 100 µM
DU-145 prostate
  GI50: 4 µM
  TGI: > 100 µM
SN12C renal
  GI50: 4.8 µM
  TGI: > 100 µM
ACHN renal
  GI50: 3.7 µM
  TGI: > 100 µM
BT-549 breast
  GI50: 2.47 µM
  TGI: 7.58 µM

## CN(C)Cc1cccc(CN(C)C)[c]1[Sn]([Br])([c]1ccccc1)[c]1ccccc1
786-0 renal
  GI50: 14.7 µM
  TGI: 29 µM
SK-OV-3 ovarian
  GI50: 14.3 µM
  TGI: 30.6 µM
T-47D breast
  GI50: 4.72 µM
  TGI: 21.5 µM
CAKI-1 renal
  GI50: 21.3 µM
  TGI: 47.1 µM
DU-145 prostate
  GI50: 20.2 µM
  TGI: 49.5 µM
SN12C renal
  GI50: 16.7 µM
  TGI: 35.6 µM
ACHN renal
  GI50: 19.1 µM
  TGI: 40.4 µM
BT-549 breast
  GI50: 1.83 µM
  TGI: 7.94 µM

## N/C(=N\c1nc2ccccc2s1)NC(=O)Nc1ccccc1Cl
786-0 renal
  GI50: 0.184 µM
  TGI: 10.4 µM
SK-OV-3 ovarian
  GI50: 0.643 µM
  TGI: 25.3 µM
T-47D breast
  GI50: 0.557 µM
  TGI: > 100 µM
CAKI-1 renal
  GI50: 0.0624 µM
  TGI: 15.5 µM
DU-145 prostate
  GI50: 0.259 µM
  TGI: 9.28 µM
SN12C renal
  GI50: 0.916 µM
  TGI: > 50.1 µM
ACHN renal
  GI50: 0.227 µM
  TGI: 7.17 µM
BT-549 breast
  GI50: 0.421 µM
  TGI: 4.86 µM
